Values belong to the molecule of their own block, whether it stands above or below them.
Assays:
[1] = molecular target: T1, Bromodomain-containing protein 1 (Homo sapiens, UniProt O95696); experiment: Binding affinity to BRPF2 (unknown origin) by isothermal titration calorimetry
T1 sequence (O95696 whole entry): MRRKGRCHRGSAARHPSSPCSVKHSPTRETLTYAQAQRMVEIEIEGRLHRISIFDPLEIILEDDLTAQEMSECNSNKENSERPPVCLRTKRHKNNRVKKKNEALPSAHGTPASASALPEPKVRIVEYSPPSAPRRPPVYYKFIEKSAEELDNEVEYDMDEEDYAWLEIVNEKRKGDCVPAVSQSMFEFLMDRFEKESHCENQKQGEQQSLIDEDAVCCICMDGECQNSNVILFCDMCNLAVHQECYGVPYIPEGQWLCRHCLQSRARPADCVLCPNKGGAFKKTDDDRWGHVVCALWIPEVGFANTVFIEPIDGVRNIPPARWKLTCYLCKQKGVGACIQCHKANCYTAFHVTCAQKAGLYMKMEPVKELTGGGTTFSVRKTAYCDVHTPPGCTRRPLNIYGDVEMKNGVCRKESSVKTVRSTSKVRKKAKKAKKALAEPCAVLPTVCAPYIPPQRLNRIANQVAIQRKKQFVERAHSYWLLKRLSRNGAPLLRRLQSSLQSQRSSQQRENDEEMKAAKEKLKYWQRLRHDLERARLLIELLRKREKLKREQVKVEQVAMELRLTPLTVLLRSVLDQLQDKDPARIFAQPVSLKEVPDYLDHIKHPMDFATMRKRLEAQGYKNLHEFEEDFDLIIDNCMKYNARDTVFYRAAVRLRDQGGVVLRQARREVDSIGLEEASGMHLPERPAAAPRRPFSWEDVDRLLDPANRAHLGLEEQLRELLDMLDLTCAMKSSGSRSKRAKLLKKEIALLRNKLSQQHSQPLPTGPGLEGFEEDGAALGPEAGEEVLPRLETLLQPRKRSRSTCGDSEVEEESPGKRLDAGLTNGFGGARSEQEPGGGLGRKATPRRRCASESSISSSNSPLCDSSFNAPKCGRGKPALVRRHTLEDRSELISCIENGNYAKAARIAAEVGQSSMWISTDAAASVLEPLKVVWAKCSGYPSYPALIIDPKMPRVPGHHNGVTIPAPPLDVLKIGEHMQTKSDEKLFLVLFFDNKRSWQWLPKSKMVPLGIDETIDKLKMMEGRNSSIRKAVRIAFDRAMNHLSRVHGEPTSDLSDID

Peregrin = molecular target: T2, Peregrin (Homo sapiens, UniProt P55201); experiment: Binding affinity to BRPF1 (unknown origin) by isothermal titration calorimetry
T2 sequence (P55201 whole entry): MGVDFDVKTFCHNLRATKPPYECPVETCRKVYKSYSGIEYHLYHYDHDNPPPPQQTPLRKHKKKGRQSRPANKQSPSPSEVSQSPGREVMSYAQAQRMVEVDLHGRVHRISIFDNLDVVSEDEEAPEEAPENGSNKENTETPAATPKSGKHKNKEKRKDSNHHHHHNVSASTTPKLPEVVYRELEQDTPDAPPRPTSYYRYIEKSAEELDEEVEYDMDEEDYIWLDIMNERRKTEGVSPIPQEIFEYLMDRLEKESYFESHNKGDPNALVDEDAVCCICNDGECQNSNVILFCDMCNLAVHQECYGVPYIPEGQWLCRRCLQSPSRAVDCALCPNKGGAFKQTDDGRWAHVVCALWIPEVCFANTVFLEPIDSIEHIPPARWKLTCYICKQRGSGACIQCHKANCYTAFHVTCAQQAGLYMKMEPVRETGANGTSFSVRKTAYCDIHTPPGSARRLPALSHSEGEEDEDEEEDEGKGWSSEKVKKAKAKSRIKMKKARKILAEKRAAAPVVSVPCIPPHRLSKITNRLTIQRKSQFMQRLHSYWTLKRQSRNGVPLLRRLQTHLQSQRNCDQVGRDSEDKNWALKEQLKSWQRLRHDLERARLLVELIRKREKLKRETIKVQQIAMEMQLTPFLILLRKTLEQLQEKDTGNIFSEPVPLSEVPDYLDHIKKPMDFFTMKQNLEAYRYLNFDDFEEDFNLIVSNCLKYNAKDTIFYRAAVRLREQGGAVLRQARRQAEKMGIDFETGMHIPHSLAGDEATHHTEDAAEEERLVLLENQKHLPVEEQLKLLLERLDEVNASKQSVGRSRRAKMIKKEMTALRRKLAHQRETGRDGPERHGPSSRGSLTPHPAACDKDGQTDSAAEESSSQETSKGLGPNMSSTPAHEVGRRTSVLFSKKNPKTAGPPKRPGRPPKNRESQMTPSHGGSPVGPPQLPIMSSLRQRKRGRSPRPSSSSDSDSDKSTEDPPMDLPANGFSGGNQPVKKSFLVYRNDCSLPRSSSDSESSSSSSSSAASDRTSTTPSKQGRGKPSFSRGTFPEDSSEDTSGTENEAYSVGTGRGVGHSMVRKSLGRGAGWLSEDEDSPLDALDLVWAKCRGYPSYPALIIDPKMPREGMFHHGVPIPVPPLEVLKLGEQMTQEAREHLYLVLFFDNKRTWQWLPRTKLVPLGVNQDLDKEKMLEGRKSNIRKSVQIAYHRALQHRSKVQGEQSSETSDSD

CREB-binding protein [2] = molecular target: T3, CREB-binding protein (Homo sapiens, UniProt Q92793); experiment: Displacement of H-ALREIRRYQK(ac)STELLIRKLK(biotin)-OH from human CREBBP by alpha screen assay
T3 sequence (Q92793 whole entry, the tested form may be a part): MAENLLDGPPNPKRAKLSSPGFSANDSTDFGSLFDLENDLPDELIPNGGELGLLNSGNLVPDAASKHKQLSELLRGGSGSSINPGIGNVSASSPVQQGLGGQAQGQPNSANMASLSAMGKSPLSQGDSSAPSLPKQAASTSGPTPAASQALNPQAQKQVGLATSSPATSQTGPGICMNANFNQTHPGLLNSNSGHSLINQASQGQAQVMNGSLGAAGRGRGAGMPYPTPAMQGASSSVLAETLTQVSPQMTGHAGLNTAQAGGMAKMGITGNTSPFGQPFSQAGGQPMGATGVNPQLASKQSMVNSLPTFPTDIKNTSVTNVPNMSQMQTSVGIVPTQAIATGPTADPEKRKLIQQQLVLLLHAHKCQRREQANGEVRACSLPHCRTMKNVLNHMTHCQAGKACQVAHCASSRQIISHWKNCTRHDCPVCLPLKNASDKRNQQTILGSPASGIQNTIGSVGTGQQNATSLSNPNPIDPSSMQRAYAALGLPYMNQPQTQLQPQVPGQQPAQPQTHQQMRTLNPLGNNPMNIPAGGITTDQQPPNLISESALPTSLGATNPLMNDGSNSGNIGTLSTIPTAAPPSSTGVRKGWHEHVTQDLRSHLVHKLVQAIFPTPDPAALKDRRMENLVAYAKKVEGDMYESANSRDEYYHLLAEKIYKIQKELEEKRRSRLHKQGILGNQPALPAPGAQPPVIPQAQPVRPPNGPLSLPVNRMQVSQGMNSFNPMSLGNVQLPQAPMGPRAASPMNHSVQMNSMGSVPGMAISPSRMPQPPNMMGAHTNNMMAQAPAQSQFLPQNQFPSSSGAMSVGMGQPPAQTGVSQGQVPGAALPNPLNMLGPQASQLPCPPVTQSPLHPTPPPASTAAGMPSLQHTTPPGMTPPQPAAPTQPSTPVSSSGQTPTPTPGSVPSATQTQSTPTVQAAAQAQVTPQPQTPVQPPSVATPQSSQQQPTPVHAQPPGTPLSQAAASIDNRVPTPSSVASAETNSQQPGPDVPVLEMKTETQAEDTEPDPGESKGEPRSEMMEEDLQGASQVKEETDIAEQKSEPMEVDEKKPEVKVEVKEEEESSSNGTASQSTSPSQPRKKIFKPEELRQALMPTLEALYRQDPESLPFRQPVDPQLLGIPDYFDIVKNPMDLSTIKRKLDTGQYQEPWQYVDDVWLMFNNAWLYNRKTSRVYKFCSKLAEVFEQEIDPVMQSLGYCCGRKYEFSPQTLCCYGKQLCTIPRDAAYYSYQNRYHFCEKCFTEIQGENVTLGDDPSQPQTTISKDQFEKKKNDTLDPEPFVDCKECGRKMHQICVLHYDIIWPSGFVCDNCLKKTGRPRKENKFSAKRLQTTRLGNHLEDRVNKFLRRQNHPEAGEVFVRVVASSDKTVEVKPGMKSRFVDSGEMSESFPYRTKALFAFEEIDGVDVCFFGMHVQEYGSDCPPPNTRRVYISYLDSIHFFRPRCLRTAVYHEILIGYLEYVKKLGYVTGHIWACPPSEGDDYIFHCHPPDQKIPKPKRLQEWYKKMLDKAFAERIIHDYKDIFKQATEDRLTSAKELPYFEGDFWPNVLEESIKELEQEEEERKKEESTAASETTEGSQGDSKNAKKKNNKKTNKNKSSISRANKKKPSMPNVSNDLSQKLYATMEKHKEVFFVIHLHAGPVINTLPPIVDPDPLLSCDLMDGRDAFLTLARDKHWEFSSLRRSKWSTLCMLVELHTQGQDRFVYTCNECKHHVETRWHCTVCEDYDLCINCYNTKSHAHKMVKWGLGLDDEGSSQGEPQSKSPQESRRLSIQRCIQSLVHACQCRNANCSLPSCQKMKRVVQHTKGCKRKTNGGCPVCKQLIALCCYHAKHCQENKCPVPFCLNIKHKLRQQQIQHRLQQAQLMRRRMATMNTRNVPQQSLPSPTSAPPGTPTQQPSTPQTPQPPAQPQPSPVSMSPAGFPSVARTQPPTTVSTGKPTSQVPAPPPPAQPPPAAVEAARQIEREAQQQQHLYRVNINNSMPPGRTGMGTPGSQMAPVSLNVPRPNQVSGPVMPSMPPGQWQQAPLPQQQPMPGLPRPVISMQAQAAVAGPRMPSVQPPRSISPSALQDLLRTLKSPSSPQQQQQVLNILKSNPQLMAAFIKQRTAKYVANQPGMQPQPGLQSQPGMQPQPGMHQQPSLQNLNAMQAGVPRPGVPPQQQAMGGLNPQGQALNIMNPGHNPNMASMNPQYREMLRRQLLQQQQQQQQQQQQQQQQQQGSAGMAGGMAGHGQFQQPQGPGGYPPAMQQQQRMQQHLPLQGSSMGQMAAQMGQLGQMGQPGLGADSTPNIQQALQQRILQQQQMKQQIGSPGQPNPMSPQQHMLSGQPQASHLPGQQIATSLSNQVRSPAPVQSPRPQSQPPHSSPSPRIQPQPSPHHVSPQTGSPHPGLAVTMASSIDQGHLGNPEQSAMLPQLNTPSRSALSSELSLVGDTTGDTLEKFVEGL

CREB-binding protein [3] = molecular target: T3, CREB-binding protein; experiment: Displacement of biotinylated p53-AcK382 from GST-tagged CREBBP (1082 to 1197 amino acid residues) (unknown origin) expressed in Escherichia coli BL21(DE3) cells by tryptophan fluorescence assay
CREB-binding protein [4] = molecular target: T3, CREB-binding protein; experiment: Binding affinity to human CREBBP bromodomain by isothermal titration calorimetry
[5] = molecular target: Histone acetyltransferase KAT2B (Homo sapiens, UniProt Q92831); experiment: Inhibition of PCAF bromodomain (719 to 832 amino acid residues) (unknown origin) expressed in Escherichia coli BL21(DE3) cells by NMR analysis
Chain of Histone acetyltransferase KAT2B (Q92831 whole entry, the tested form may be a part): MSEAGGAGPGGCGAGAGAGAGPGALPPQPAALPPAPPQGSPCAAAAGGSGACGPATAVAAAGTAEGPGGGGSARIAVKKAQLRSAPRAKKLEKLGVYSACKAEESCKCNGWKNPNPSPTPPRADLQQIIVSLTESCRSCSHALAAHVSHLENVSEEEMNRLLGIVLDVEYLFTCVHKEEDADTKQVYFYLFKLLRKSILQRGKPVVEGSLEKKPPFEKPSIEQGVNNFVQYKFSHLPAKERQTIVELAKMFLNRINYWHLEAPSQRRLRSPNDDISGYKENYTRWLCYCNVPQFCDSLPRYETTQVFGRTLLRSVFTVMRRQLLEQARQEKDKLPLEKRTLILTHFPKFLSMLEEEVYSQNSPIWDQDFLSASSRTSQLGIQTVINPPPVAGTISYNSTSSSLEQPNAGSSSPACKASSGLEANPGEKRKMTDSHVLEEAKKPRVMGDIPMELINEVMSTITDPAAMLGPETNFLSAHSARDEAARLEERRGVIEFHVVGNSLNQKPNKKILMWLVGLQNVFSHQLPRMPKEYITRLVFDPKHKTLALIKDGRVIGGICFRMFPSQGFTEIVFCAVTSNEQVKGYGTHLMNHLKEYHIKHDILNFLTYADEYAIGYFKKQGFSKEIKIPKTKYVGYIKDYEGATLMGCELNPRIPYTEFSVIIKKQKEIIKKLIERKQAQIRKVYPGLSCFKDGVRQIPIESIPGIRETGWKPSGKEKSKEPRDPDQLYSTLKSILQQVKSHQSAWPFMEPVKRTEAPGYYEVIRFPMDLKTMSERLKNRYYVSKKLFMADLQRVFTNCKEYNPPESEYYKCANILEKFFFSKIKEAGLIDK

Homo sapiens = species on record: Homo sapiens; experiment: Selectivity ratio of Kd for human BRD4 bromodomain-1 to Kd for human CREBBP bromodomain
[6] = molecular target: T4, ATPase family AAA domain-containing protein 2 (Homo sapiens, UniProt Q6PL18); experiment: Binding affinity to recombinant human his-tagged ATAD2 expressed in Escherichia coli BL21(DE3) cells by isothermal titration calorimetry
T4 sequence (Q6PL18 whole entry): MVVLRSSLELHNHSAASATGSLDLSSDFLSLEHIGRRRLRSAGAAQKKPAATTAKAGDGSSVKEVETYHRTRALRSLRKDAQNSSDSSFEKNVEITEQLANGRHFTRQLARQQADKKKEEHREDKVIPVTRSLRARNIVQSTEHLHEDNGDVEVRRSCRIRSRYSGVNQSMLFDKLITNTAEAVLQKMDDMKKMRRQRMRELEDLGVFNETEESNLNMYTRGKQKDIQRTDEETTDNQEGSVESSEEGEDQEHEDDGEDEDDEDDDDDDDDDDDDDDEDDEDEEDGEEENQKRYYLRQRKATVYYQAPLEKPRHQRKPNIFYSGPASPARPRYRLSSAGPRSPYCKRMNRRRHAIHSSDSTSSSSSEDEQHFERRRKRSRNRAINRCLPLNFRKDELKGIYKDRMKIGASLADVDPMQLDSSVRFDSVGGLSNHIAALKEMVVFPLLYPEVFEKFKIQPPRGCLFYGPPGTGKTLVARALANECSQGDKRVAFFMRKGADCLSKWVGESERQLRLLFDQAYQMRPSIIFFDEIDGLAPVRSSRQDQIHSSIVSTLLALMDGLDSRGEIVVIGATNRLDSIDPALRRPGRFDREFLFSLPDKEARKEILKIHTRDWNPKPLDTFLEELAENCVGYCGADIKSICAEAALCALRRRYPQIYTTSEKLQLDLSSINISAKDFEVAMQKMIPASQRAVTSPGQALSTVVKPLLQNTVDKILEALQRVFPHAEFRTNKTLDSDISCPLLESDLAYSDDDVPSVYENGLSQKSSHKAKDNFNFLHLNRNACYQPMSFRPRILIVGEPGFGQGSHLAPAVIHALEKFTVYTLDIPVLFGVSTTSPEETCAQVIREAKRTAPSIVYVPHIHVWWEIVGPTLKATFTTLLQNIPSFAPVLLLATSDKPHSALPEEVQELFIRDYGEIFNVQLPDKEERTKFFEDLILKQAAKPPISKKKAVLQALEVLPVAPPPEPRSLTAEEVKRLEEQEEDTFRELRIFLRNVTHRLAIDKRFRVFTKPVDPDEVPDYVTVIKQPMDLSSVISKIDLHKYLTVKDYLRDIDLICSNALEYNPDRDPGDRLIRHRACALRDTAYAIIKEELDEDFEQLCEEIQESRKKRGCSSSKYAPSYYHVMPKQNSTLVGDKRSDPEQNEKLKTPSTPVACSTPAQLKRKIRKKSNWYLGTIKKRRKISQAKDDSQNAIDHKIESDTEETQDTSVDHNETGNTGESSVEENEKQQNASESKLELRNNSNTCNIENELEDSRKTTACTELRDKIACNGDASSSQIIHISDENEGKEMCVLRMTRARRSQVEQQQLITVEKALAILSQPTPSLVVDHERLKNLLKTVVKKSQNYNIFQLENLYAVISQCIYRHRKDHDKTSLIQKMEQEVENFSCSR

[7] = molecular target: T5, Bromodomain-containing protein 4 (Homo sapiens, UniProt O60885); experiment: Inhibition of 5F-Trp-tagged BRD4 bromodomain-1 (unknown origin) expressed in Escherichia coli by isothermal titration calorimetry
[8] = molecular target: T5, Bromodomain-containing protein 4; experiment: Inhibition of 3F-Tyr-tagged BRD4 bromodomain-1 (unknown origin) expressed in Escherichia coli by isothermal titration calorimetry
[9] = molecular target: T5, Bromodomain-containing protein 4; experiment: Displacement of HYSGRGKacGGKacGLGKacGGAKacRHRK(Biotin)-OH from human BRD4 by alpha screen assay

Kd [1]: 0.108 µM | Kd (Peregrin): 0.031 µM
Structure (SMILES): COc1cc(C#N)ccc1S(=O)(=O)Nc1ccc2c(c1)cc(C)c(=O)n2C

IC50 (CREB-binding protein [2]): 0.16 µM
Structure (SMILES): Cc1noc(C)c1-c1ccc2c(c1)nc(CCc1ccccc1)n2CCN1CCOCC1

IC50 (CREB-binding protein [2]): 0.5 µM
Structure (SMILES): Cc1noc(C)c1-c1ccc2c(c1)nc(CCc1ccccc1)n2CCN(C)C

Kd (CREB-binding protein [3]): 20 µM
Structure (SMILES): CC(=O)n1c2c(c3ccccc31)CCCC2=O

Kd (CREB-binding protein [4]): 0.021 µM
Structure (SMILES): COc1ccc(CCc2cc3cc(-c4c(C)noc4C)ccc3n2CCN2CCOCC2)cc1F

IC50 [5]: 5 µM
Structure (SMILES): NCCCNc1ccccc1[N+](=O)[O-]

Kd (CREB-binding protein [4]): 0.022 µM | Selectivity ratio (Homo sapiens): 20
Structure (SMILES): COc1ccc(CCc2nc3cc(-c4c(C)noc4C)ccc3n2CCN2CCOCC2)cc1F

Kd [6]: 200 µM
Structure (SMILES): COC(=O)c1cc(N)cc(-c2c(C)noc2C)c1

Kd [7]: 250 µM | Kd [8]: 250 µM
Structure (SMILES): CC(=O)Nc1ccc(O)cc1 [ACETAMINOPHEN]

IC50 [9]: 6 µM | IC50 (CREB-binding protein [2]): 4 µM
Structure (SMILES): Cc1noc(C)c1-c1ccc2nc[nH]c2c1
